PubChem BioAssay (NCI)
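The compound was tested at five concentrations on cells cultured in 96-well plates, with a 48-hour exposure period. Here, GI50 denotes the concentration required for 50% inhibition of growth. At the TGI there is no net growth.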

Columns and labels:
Test in all cases: growth of human tumour cells (NCI), 48 h
KM12 colon = test system: KM12 colon
DU-145 prostate = test system: DU-145 prostate
TK-10 renal = test system: TK-10 renal
OVCAR-4 ovarian = test system: OVCAR-4 ovarian
HL-60(TB) leukemia = test system: HL-60(TB) leukemia
CAKI-1 renal = test system: CAKI-1 renal
UACC-62 melanoma = test system: UACC-62 melanoma
SN12C renal = test system: SN12C renal
SNB-75 CNS = test system: SNB-75 CNS
OVCAR-5 ovarian = test system: OVCAR-5 ovarian
ACHN renal = test system: ACHN renal
NCI/ADR-RES ovarian = test system: NCI/ADR-RES ovarian
UACC-257 melanoma = test system: UACC-257 melanoma
SF-539 CNS = test system: SF-539 CNS
T-47D breast = test system: T-47D breast
HS 578T breast = test system: HS 578T breast
SK-OV-3 ovarian = test system: SK-OV-3 ovarian
SK-MEL-28 melanoma = test system: SK-MEL-28 melanoma
A498 renal = test system: A498 renal
MCF7 breast = test system: MCF7 breast
SK-MEL-2 melanoma = test system: SK-MEL-2 melanoma
COLO 205 colon = test system: COLO 205 colon
MDA-MB-231 breast = test system: MDA-MB-231 breast
NCI-H226 lung = test system: NCI-H226 lung
MDA-MB-435 = test system: MDA-MB-435

`Cc1ccc(NC(=O)c2ccc(CN3CCN(C)CC3)c(I)c2)cc1Oc1ccc(-c2[nH]nc3ncnc(N)c23)cc1` showed a GI50 (KM12 colon) of 1.79 µM, a TGI (KM12 colon) of 3.59 µM and a GI50 (DU-145 prostate) of 1.88 µM. For the same compound, the TGI (DU-145 prostate) was 3.45 µM, the GI50 (TK-10 renal) was 5.33 µM and the TGI (TK-10 renal) was 28 µM. For the same compound, the GI50 (OVCAR-4 ovarian) was 18 µM, the TGI (OVCAR-4 ovarian) was 40.7 µM and the GI50 (HL-60(TB) leukemia) was 4.42 µM. The TGI (HL-60(TB) leukemia) was over 100 µM, the GI50 (CAKI-1 renal) was 12 µM and the TGI (CAKI-1 renal) was 28.1 µM. The GI50 (UACC-62 melanoma) was 1.73 µM, the TGI (UACC-62 melanoma) was 3.35 µM and the GI50 (SN12C renal) was 12.1 µM. It also gave a TGI (SN12C renal) of 33.8 µM, a GI50 (SNB-75 CNS) of 0.458 µM and a TGI (SNB-75 CNS) of 20.8 µM. It also gave a GI50 (OVCAR-5 ovarian) of 1.94 µM, a TGI (OVCAR-5 ovarian) of 3.52 µM and a GI50 (ACHN renal) of 1.8 µM. For the same compound, the TGI (ACHN renal) was 3.33 µM, the GI50 (NCI/ADR-RES ovarian) was 3.93 µM and the TGI (NCI/ADR-RES ovarian) was 40.7 µM. The GI50 (UACC-257 melanoma) was 2.03 µM, the TGI (UACC-257 melanoma) was 4.59 µM and the GI50 (SF-539 CNS) was 1.26 µM. The TGI (SF-539 CNS) was 2.68 µM, the GI50 (T-47D breast) was 2.72 µM and the TGI (T-47D breast) was over 100 µM. The GI50 (HS 578T breast) was 1.77 µM, the TGI (HS 578T breast) was 5.09 µM and the GI50 (SK-OV-3 ovarian) was 26.2 µM. For the same compound, the TGI (SK-OV-3 ovarian) was 63.9 µM, the GI50 (SK-MEL-28 melanoma) was 1.63 µM and the TGI (SK-MEL-28 melanoma) was 3.12 µM. The GI50 (A498 renal) was 18.8 µM, the TGI (A498 renal) was 38.3 µM and the GI50 (MCF7 breast) was 1.35 µM. The TGI (MCF7 breast) was 2.94 µM, the GI50 (SK-MEL-2 melanoma) was 24.7 µM and the TGI (SK-MEL-2 melanoma) was 80.1 µM. For the same compound, the GI50 (COLO 205 colon) was 1.73 µM, the TGI (COLO 205 colon) was 5.08 µM and the GI50 (MDA-MB-231 breast) was 1.85 µM. The TGI (MDA-MB-231 breast) was 3.47 µM, the GI50 (NCI-H226 lung) was 23.2 µM and the TGI (NCI-H226 lung) was 84.9 µM. The GI50 (MDA-MB-435) was 1.58 µM and the TGI (MDA-MB-435) was 3.01 µM.
